This passage reports IC50 results from patent US10000476B2, “Pyridone derivative, pharmaceutical containing the same and methods of use thereof” (KAKEN PHARMACEUTICAL CO., LTD., priority 2011, dated 2018).

TACE, sequence (P78536 215-824): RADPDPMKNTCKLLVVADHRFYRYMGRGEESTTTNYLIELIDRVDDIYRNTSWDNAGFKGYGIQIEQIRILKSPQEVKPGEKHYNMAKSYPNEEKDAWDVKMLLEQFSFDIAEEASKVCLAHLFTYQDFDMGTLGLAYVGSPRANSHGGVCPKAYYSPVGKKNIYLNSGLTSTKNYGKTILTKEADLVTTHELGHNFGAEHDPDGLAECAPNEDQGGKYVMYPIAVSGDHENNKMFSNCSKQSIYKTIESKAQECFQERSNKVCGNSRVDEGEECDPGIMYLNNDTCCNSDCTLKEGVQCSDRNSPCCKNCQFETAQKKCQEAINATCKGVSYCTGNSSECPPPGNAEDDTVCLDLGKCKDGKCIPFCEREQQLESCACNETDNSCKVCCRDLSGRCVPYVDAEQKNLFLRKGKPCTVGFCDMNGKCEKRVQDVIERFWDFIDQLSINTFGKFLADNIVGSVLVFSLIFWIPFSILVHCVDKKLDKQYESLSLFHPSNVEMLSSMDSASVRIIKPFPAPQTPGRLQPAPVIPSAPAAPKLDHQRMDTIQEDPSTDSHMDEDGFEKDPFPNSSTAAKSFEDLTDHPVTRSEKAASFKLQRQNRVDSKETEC

The target of this assay is TACE (Homo sapiens (Human), UniProt P78536). Kind of assay: TACE inhibition test (in vitro). It is filed as biochemical. As to conditions: fluorescent synthetic substrate, 37° C., 1.5 hours. How it is done:
The nucleotide sequence of TACE has been reported by Moss et al. (Moss, M. L. et al., Nature 1997, 385, 733-736). Accordingly, the cDNA of TACE was obtained according to the prescribed method from THP-1 cells or the like, and then incorporated the cDNA into an expression vector. Next, this vector was transformed into mammalian cells or insect cells, and TACE expression was obtained.
The TACE inhibition test was carried out by measuring TACE activity in the presence and the absence of the test substance using the thus-obtained TACE as an enzyme, and a fluorescent synthetic substrate Nma(N-methylanthranilic acid)-Leu-Ala-Gln-Ala-Val-Arg-Ser-Ser-Lys(Dnp(dinitrophenyl))-D-Arg-NH2 (SEQ ID NO: 1) including the TACE-cleaved sequence of a membrane-bound TNF as a substrate. The TACE inhibition test method is shown below.
Namely, 90 μL of an enzyme solution prepared with an assay buffer A (50 mM tris-hydrochloric acid buffer (pH 7.5) including 200 mM sodium chloride, 5 mM calcium chloride, 10 μM zinc sulfate, and 2 mg/mL bovine serum albumin) and 90 μL of a fluorescent synthetic substrate prepared with an assay buffer B (50 mM tris-hydrochloric acid buffer (pH 7.5) including 200 mM sodium chloride, 5 mM calcium chloride, 10 μM zinc sulfate, and 0.05% PLURONIC F-68) were mixed together, and reacted at 37° C. for 1.5 hours. Enzyme activity was then determined by measuring with a fluorescence intensity meter (Labsystems, Fluoroskan Ascent) at an excitation wavelength of 355 nm and a measurement wavelength of 460 nm.
From the enzyme activity in the presence or the absence of the test substance, the inhibition rate was determined, and the 50% inhibitiory concentration (IC50) of the test substance was calculated.
In general, IC50 refers to the point on the concentration scale where inhibition reaches its midpoint. A higher IC50 goes with weaker potency in that assay. As to `Cc1cccn(CC2(c3ccc(Oc4ccc(F)c(F)c4)cc3)NC(=O)NC2=O)c1=O` (stereo not drawn) [Compound I-98], the IC50 was under 100 nM. Under `Cc1cccn(CC2(c3ccc(C(F)(F)F)cc3)NC(=O)NC2=O)c1=O` (stereo not drawn) [Compound I-89] stands under 100 nM; under `Cc1cccn(CC2(c3cc(F)ccc3F)NC(=O)NC2=O)c1=O` (stereo not drawn) [Compound I-154], under 100 nM. `Cc1cccn(CC2(c3ccc(/C=C/C4CCCCC4)cc3)NC(=O)NC2=O)c1=O` (stereo not drawn) [Compound I-109] yielded an IC50 of 100 to 1000 nM. Under `Cc1cccn(CC2(c3ccc(C(C)C)cc3)NC(=O)NC2=O)c1=O` (stereo not drawn) [Compound I-117] stands under 100 nM; under `Cc1cccn(CC2(c3ccc4c(c3)CCCC4)NC(=O)NC2=O)c1=O` (stereo not drawn) [Compound I-77], under 100 nM. In turn, `CCOc1ccc(C2(Cn3cccc(C)c3=O)NC(=O)NC2=O)cc1` (stereo not drawn) [Compound I-119] showed an IC50 of under 100 nM.

For the molecule `Cc1cccn(CC2(c3cc4ccccc4o3)NC(=O)NC2=O)c1=O` (stereo not drawn) [Compound I-6, 5-(benzofuran-2-yl)-5-[(3-methyl-2-oxopyridin-1(2H)-yl)methyl]imidazolidine-2,4-dione], the IC50 is under 100 nM. Consider `Cc1cccn(CC2(c3ccc(Oc4cccnc4)c(F)c3)NC(=O)NC2=O)c1=O` (stereo not drawn) [Compound I-122], for which the IC50 is under 100 nM.

`COc1cc(F)ccc1C1(Cn2cccc(C)c2=O)NC(=O)NC1=O` (stereo not drawn) [Compound I-21, 5-(4-fluoro-2-methoxyphenyl)-5-[(3-methyl-2-oxopyridin-1(2H)-yl)methyl]imidazolidine-2,4-dione] gave an IC50 of under 100 nM. Under `Cc1cccn(CC2(c3ccc4c(c3)OCCCO4)NC(=O)NC2=O)c1=O` (stereo not drawn) [Compound I-105] stands under 100 nM; under `C=Cc1ccc(C2(Cn3cccc(C)c3=O)NC(=O)NC2=O)cc1` (stereo not drawn) [Compound I-43, 5-[(3-methyl-2-oxopyridin-1(2H)-yl)methyl]-5-(4-vinylphenyl)imidazolidine-2,4-dione], under 100 nM; under `O=C1NC(=O)C(Cn2ccccc2=O)(c2ccc(Cc3ccccc3)cc2)N1` (stereo not drawn) [Compound I-156], 100 to 1000 nM. `Cc1cccn(CC2(c3ccc(Sc4ccccc4)c(F)c3)NC(=O)NC2=O)c1=O` (stereo not drawn) [Compound I-103] yielded an IC50 of under 100 nM. Regarding `O=C1NC(=O)C(Cn2cccc(F)c2=O)(c2ccc3ccccc3c2)N1` (stereo not drawn) [Compound I-135], the IC50 is under 100 nM. Under `Cc1cccn(CC2(c3ccc(Oc4ccc(F)cc4)c(F)c3)NC(=O)NC2=O)c1=O` (stereo not drawn) [Compound I-111] stands under 100 nM; under `O=C1NC(=O)C(Cn2cccc(CO)c2=O)(c2ccc(Cc3ccccc3)cc2)N1` (stereo not drawn) [Compound I-151], 100 to 1000 nM.

Take `Cc1cccn(CC2(c3ccc(Oc4ccccc4)c(F)c3)NC(=O)NC2=O)c1=O` (stereo not drawn) [Compound I-87]: the IC50 was under 100 nM. Under `COc1cccc(C2(Cn3cccc(C)c3=O)NC(=O)NC2=O)c1` (stereo not drawn) [Compound I-4, 5-(3-methoxyphenyl)-5-[(3-methyl-2-oxopyridin-1(2H)-yl)methyl]imidazolidine-2,4-dione] stands under 100 nM. Under `Cc1cc(C2(Cn3cccc(C)c3=O)NC(=O)NC2=O)ccc1F` (stereo not drawn) [Compound I-30, 5-(4-fluoro-3-methylphenyl)-5-[(3-methyl-2-oxopyridin-1(2H)-yl)methyl]imidazolidine-2,4-dione] stands under 100 nM; under `COc1cccn(CC2(c3ccccc3)NC(=O)NC2=O)c1=O` (stereo not drawn) [Compound I-143], 100 to 1000 nM; under `Cc1cccn(CC2(c3ccc(C4CCCCC4)cc3)NC(=O)NC2=O)c1=O` (stereo not drawn) [Compound I-66], under 100 nM. Molecule `Cc1cccn(CC2(c3ccc(Oc4ccccc4F)c(F)c3)NC(=O)NC2=O)c1=O` (stereo not drawn) [Compound I-104] came in with an IC50 of under 100 nM. For `Cc1cccn(CC2(c3ccc(-c4ccccn4)cc3)NC(=O)NC2=O)c1=O` (stereo not drawn) [Compound I-92], the 50% inhibitory concentration (IC50) is under 100 nM. Under `Cc1cccn(CC2(c3ccc(Oc4ccccc4)c(Cl)c3)NC(=O)NC2=O)c1=O` (stereo not drawn) [Compound I-123] stands under 100 nM. Under `Cc1cccn(CC2(c3cccc(O)c3)NC(=O)NC2=O)c1=O` (stereo not drawn) [Compound I-54, 5-(3-hydroxyphenyl)-5-[(3-methyl-2-oxopyridin-1(2H)-yl)methyl]imidazolidine-2,4-dione] stands 100 to 1000 nM.

On to `COc1ccc(C2(Cn3ccccc3=O)NC(=O)NC2=O)cc1` (stereo not drawn) [Compound I-47, 5-(4-methoxyphenyl)-5-[(2-oxopyridin-1(2H)-yl)methyl]imidazolidine-2,4-dione], for which the IC50 is under 100 nM.

Take `Cc1cccn(CC2(c3cc(F)c(F)c(F)c3)NC(=O)NC2=O)c1=O` (stereo not drawn) [Compound I-44, 5-[(3-methyl-2-oxopyridin-1(2H)-yl)methyl]-5-(3,4,5-trifluorophenyl)imidazolidine-2,4-dione]: the IC50 was under 100 nM. Under `Cc1cccn(CC2(c3ccc(CC(C)C)cc3)NC(=O)NC2=O)c1=O` (stereo not drawn) [Compound I-121] stands under 100 nM. For `Cc1cccn(CC2(c3ccc(Oc4ccc(Cl)cc4)cc3)NC(=O)NC2=O)c1=O` (stereo not drawn) [Compound I-82], the IC50 was under 100 nM. In turn, `Cc1cccn(CC2(c3ccc4c(c3)OCO4)NC(=O)NC2=O)c1=O` (stereo not drawn) [Compound I-65] yielded an IC50 of under 100 nM.

In turn, `Cc1cccn(CC2(c3ccc(C(C)(C)C)cc3)NC(=O)NC2=O)c1=O` (stereo not drawn) [Compound I-17, 5-[4-(tert-butyl)phenyl]-5-[(3-methyl-2-oxopyridin-1(2H)-yl)methyl]imidazolidine-2,4-dione] returned an IC50 of under 100 nM. Under `Cc1cccn(CC2(c3cccc(-c4ccccn4)c3)NC(=O)NC2=O)c1=O` (stereo not drawn) [Compound I-94] stands under 100 nM. Under `COc1ccc(C2(Cn3cccc(F)c3=O)NC(=O)NC2=O)cc1` (stereo not drawn) [Compound I-133] stands under 100 nM; under `Cc1cccn(CC2(c3ccccn3)NC(=O)NC2=O)c1=O` (stereo not drawn) [Compound I-7, 5-[(3-methyl-2-oxopyridin-1(2H)-yl)methyl]-5-(pyridin-2-yl)imidazolidine-2,4-dione], under 100 nM. Under `Cc1cccn(CC2(c3ccc(Cl)c(Cl)c3)NC(=O)NC2=O)c1=O` (stereo not drawn) [Compound I-125] stands under 100 nM; under `Cc1cccn(CC2(c3cccc(-c4ccccc4)c3)NC(=O)NC2=O)c1=O` (stereo not drawn) [Compound I-96], under 100 nM; under `O=C1NC(=O)C(Cn2cccc(CO)c2=O)(c2ccc(F)c(F)c2)N1` (stereo not drawn) [Compound I-148], 100 to 1000 nM. As for `COCOc1ccc(C2(Cn3cccc(C)c3=O)NC(=O)NC2=O)cc1` (stereo not drawn) [Compound I-13, 5-[4-(methoxymethoxy)phenyl]-5-[(3-methyl-2-oxopyridin-1(2H)-yl)methyl]imidazolidine-2,4-dione], the IC50 was under 100 nM. Under `COc1ccc(Oc2ccc(C3(Cn4cccc(C)c4=O)NC(=O)NC3=O)cc2)cc1` (stereo not drawn) [Compound I-81] stands under 100 nM. Under `C=C(C)c1ccc(C2(Cn3cccc(C)c3=O)NC(=O)NC2=O)cc1` (stereo not drawn) [Compound I-108] stands under 100 nM; under `Cc1cccn(CC2(c3ccccc3OCc3ccccc3)NC(=O)NC2=O)c1=O` (stereo not drawn) [Compound I-68], 100 to 1000 nM; under `O=C1NC(=O)C(Cn2cccc(Cl)c2=O)(c2ccc(F)cc2)N1` (stereo not drawn) [Compound I-136], under 100 nM. Under `Cc1cccn(CC2(c3ccc(OC4CCCC4)cc3)NC(=O)NC2=O)c1=O` (stereo not drawn) [Compound I-124] stands under 100 nM; under `COc1ccccc1-c1ccc(C2(Cn3cccc(C)c3=O)NC(=O)NC2=O)cc1` (stereo not drawn) [Compound I-74], under 100 nM. Take `Cc1noc(C)c1-c1ccc(C2(Cn3cccc(C)c3=O)NC(=O)NC2=O)cc1` (stereo not drawn) [Compound I-90]: the IC50 was under 100 nM. As to `O=C1NC(=O)C(Cn2cccc(Br)c2=O)(c2ccc(F)c(F)c2)N1` (stereo not drawn) [Compound I-147], the concentration for half-maximal inhibition (IC50) was under 100 nM. As to `COc1ccc(F)cc1C1(Cn2cccc(C)c2=O)NC(=O)NC1=O` (stereo not drawn) [Compound I-69], the IC50 was under 100 nM. Under `O=C1NC(=O)C(Cn2cccc(Cl)c2=O)(c2cc3ccccc3o2)N1` (stereo not drawn) [Compound I-51, 5-(benzofuran-2-yl)-5-[(3-chloro-2-oxopyridin-1(2H)-yl)methyl]imidazolidine-2,4-dione] stands under 100 nM; under `COc1ccc(C2(Cn3cccc(C)c3=O)NC(=O)NC2=O)cc1OC` (stereo not drawn) [Compound I-16, 5-(3,4-dimethoxyphenyl)-5-[(3-methyl-2-oxopyridin-1(2H)-yl)methyl]imidazolidine-2,4-dione], under 100 nM; under `N#Cc1ccc(C2(Cn3cccc(Cl)c3=O)NC(=O)NC2=O)cc1` (stereo not drawn) [Compound I-138], under 100 nM. Molecule `Cc1cccn(CC2(c3ccc(Oc4cccnc4)cc3)NC(=O)NC2=O)c1=O` (stereo not drawn) [Compound I-101] had an IC50 of under 100 nM. Under `COc1ccc(C2(Cn3cccc(Cl)c3=O)NC(=O)NC2=O)cc1` (stereo not drawn) [Compound I-137] stands under 100 nM; under `Cc1cccn(CC2(c3ccc(Br)cc3)NC(=O)NC2=O)c1=O` (stereo not drawn) [Compound I-11, 5-(4-bromophenyl)-5-[(3-methyl-2-oxopyridin-1(2H)-yl)methyl]imidazolidine-2,4-dione], under 100 nM.
